Experimental data published in US12077503B2, “Substituted cyclic amides and their use as herbicides” (FMC CORPORATION, priority 2015, dated 2024).

How the values were obtained:
Type in all cases: in vivo
[1] = system: velvetleaf (Abutilon theophrasti); assay: Test G Pre-Emergence Protocol; details: Abutilon theophrasti, pre-emergence, 312 h, evaluated after 13 days; for pest or weed control at 15.625 g/ha: 15.625 g ai/ha; for pest or weed control at 15.625 g/ha / pest or weed control at 250 g/ha: read-out: Velvetleaf damage rating (100=total damage to plant; 0=no damage to plant); for pest or weed control at 62.5 g/ha: 62.5 g ai/ha, 100=total damage to plant, 0=no damage to plant, read-out: Velvetleaf damage rating; for pest or weed control at 250 g/ha: 250 g ai/ha
In short: (§1)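 Spraying took place one day after sowing, at 15.625, 62.5 or 250 g/ha, using an acetone/water (50:50) spray solution containing 0.5% Tween 20. Plants were kept under glasshouse conditions (24/16 °C, 14 h light, 65% humidity, watered twice daily), and injury was rated 0–100 at day 13.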

corn (Zea mays) [2] = assay: Test G Pre-Emergence Protocol; details: Zea mays, pre-emergence, 312 h, evaluated after 13 days; for plant injury at 15.625 g/ha: 15.625 g ai/ha; for plant injury at 15.625 g/ha / plant injury at 250 g/ha: read-out: Corn damage rating (100=total damage to plant; 0=no damage to plant); for plant injury at 62.5 g/ha: 62.5 g ai/ha, 100=total damage to plant, 0=no damage to plant, read-out: Corn damage rating; for plant injury at 250 g/ha: 250 g ai/ha
In short: as §1

[3] = system: giant foxtail (Setaria faberi); assay: Test G Pre-Emergence Protocol; details: Setaria faberi, pre-emergence, 312 h, evaluated after 13 days; for pest or weed control at 15.625 g/ha: 15.625 g ai/ha; for pest or weed control at 15.625 g/ha / pest or weed control at 250 g/ha: read-out: Foxtail, Giant damage rating (100=total damage to plant; 0=no damage to plant); for pest or weed control at 62.5 g/ha: 62.5 g ai/ha, 100=total damage to plant, 0=no damage to plant, read-out: Foxtail, Giant damage rating; for pest or weed control at 250 g/ha: 250 g ai/ha
In short: as §1

[4] = system: redroot pigweed (Amaranthus retroflexus); assay: Test G Pre-Emergence Protocol; details: Amaranthus retroflexus, pre-emergence, 312 h, evaluated after 13 days; for pest or weed control at 15.625 g/ha: 15.625 g ai/ha; for pest or weed control at 15.625 g/ha / pest or weed control at 250 g/ha: read-out: Pigweed, Redroot damage rating (100=total damage to plant; 0=no damage to plant); for pest or weed control at 62.5 g/ha: 62.5 g ai/ha, 100=total damage to plant, 0=no damage to plant, read-out: Pigweed, Redroot damage rating; for pest or weed control at 250 g/ha: 250 g ai/ha
In short: as §1

[5] = system: barnyardgrass (Echinochloa crus-galli); assay: Test G Pre-Emergence Protocol; details: Echinochloa crus-galli, pre-emergence, 312 h, evaluated after 13 days; for pest or weed control at 15.625 g/ha: 15.625 g ai/ha; for pest or weed control at 15.625 g/ha / pest or weed control at 250 g/ha: read-out: Barnyardgrass damage rating (100=total damage to plant; 0=no damage to plant); for pest or weed control at 62.5 g/ha: 62.5 g ai/ha, 100=total damage to plant, 0=no damage to plant, read-out: Barnyardgrass damage rating; for pest or weed control at 250 g/ha: 250 g ai/ha
In short: as §1

[6] = system: ivy-leaved morning glory (Ipomoea hederacea); assay: Test G Pre-Emergence Protocol; details: Ipomoea, pre-emergence, 312 h, evaluated after 13 days; for pest or weed control at 15.625 g/ha: 15.625 g ai/ha; for pest or weed control at 15.625 g/ha / pest or weed control at 250 g/ha: read-out: Morningglory, Ivy-leaved damage rating (100=total damage to plant; 0=no damage to plant); for pest or weed control at 250 g/ha: 250 g ai/ha
In short: as §1

[7] = system: velvetleaf (Abutilon theophrasti); assay: Test G Post-Emergence Protocol; details: Abutilon theophrasti, post-emergence, 312 h, read-out: Velvetleaf damage rating; for pest or weed control at 15.625 g/ha: 15.625 g ai/ha, evaluated after 13 days (100=total damage to plant; 0=no damage to plant); for pest or weed control at 62.5 g/ha: 62.5 g ai/ha; for pest or weed control at 62.5 g/ha / pest or weed control at 250 g/ha: evaluated after 13 days, 100=total damage to plant, 0=no damage to plant; for pest or weed control at 250 g/ha: 250 g ai/ha
In short: (§2)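 Damage was rated 13 days after treatment from 0 (none) to 100 (plant killed). Compound was applied as a spray at 15.625, 62.5 or 250 g/ha in 50:50 acetone/water containing 0.5% Tween 20, onto 8-day-old potted plants kept in a glasshouse (24/16 °C, 14 h light, 65% humidity).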

corn (Zea mays) [8] = assay: Test G Post-Emergence Protocol; details: Zea mays, post-emergence, 312 h, read-out: Corn damage rating; for plant injury at 15.625 g/ha: 15.625 g ai/ha, evaluated after 13 days (100=total damage to plant; 0=no damage to plant); for plant injury at 62.5 g/ha: 62.5 g ai/ha; for plant injury at 62.5 g/ha / plant injury at 250 g/ha: evaluated after 13 days, 100=total damage to plant, 0=no damage to plant; for plant injury at 250 g/ha: 250 g ai/ha
In short: as §2

[9] = system: giant foxtail (Setaria faberi); assay: Test G Post-Emergence Protocol; details: Setaria faberi, post-emergence, 312 h, read-out: Foxtail, Giant damage rating; for pest or weed control at 15.625 g/ha: 15.625 g ai/ha, evaluated after 13 days (100=total damage to plant; 0=no damage to plant); for pest or weed control at 62.5 g/ha: 62.5 g ai/ha; for pest or weed control at 62.5 g/ha / pest or weed control at 250 g/ha: evaluated after 13 days, 100=total damage to plant, 0=no damage to plant; for pest or weed control at 250 g/ha: 250 g ai/ha
In short: as §2

[10] = system: redroot pigweed (Amaranthus retroflexus); assay: Test G Post-Emergence Protocol; details: Amaranthus retroflexus, post-emergence, 312 h, read-out: Pigweed, Redroot damage rating; for pest or weed control at 15.625 g/ha: 15.625 g ai/ha, evaluated after 13 days (100=total damage to plant; 0=no damage to plant); for pest or weed control at 62.5 g/ha: 62.5 g ai/ha; for pest or weed control at 62.5 g/ha / pest or weed control at 250 g/ha: evaluated after 13 days, 100=total damage to plant, 0=no damage to plant; for pest or weed control at 250 g/ha: 250 g ai/ha
In short: as §2

[11] = system: barnyardgrass (Echinochloa crus-galli); assay: Test G Post-Emergence Protocol; details: Echinochloa crus-galli, post-emergence, 312 h, read-out: Barnyardgrass damage rating; for pest or weed control at 15.625 g/ha: 15.625 g ai/ha, evaluated after 13 days (100=total damage to plant; 0=no damage to plant); for pest or weed control at 62.5 g/ha: 62.5 g ai/ha; for pest or weed control at 62.5 g/ha / pest or weed control at 250 g/ha: evaluated after 13 days, 100=total damage to plant, 0=no damage to plant; for pest or weed control at 250 g/ha: 250 g ai/ha
In short: as §2

[12] = system: ivy-leaved morning glory (Ipomoea hederacea); assay: Test G Post-Emergence Protocol; details: Ipomoea, post-emergence, 312 h, read-out: Morningglory, Ivy-leaved damage rating; for pest or weed control at 15.625 g/ha: 15.625 g ai/ha, evaluated after 13 days (100=total damage to plant; 0=no damage to plant); for pest or weed control at 62.5 g/ha: 62.5 g ai/ha; for pest or weed control at 62.5 g/ha / pest or weed control at 250 g/ha: evaluated after 13 days, 100=total damage to plant, 0=no damage to plant; for pest or weed control at 250 g/ha: 250 g ai/ha
In short: as §2

CN1C[C@@H](c2cccc(Oc3ccc(F)cc3)c2)[C@H](C(=O)Nc2cccc(F)n2)C1=O (racemic) [Compound 1829]
pest or weed control at 15.625 g/ha [1]: 0%
pest or weed control at 62.5 g/ha [1]: 0%
pest or weed control at 250 g/ha [1]: 20%
plant injury at 15.625 g/ha (corn (Zea mays) [2]): 0%
plant injury at 62.5 g/ha (corn (Zea mays) [2]): 10%
plant injury at 250 g/ha (corn (Zea mays) [2]): 60%
pest or weed control at 15.625 g/ha [3]: 70%
pest or weed control at 62.5 g/ha [3]: 80%
pest or weed control at 250 g/ha [3]: 90%
pest or weed control at 15.625 g/ha [4]: 0%
pest or weed control at 62.5 g/ha [4]: 0%
pest or weed control at 250 g/ha [4]: 30%
pest or weed control at 15.625 g/ha [5]: 60%
pest or weed control at 62.5 g/ha [5]: 70%
pest or weed control at 250 g/ha [5]: 90%
pest or weed control at 15.625 g/ha [6]: 0%
pest or weed control at 62.5 g/ha ([6]; 62.5 g ai/ha, 100=total damage to plant, 0=no damage to plant, read-out: Morningglory, Ivy-leaved damage rating): 0%
pest or weed control at 250 g/ha [6]: 0%
pest or weed control at 15.625 g/ha [7]: 0%
pest or weed control at 62.5 g/ha [7]: 0%
pest or weed control at 250 g/ha [7]: 20%
plant injury at 15.625 g/ha (corn (Zea mays) [8]): 20%
plant injury at 62.5 g/ha (corn (Zea mays) [8]): 0%
plant injury at 250 g/ha (corn (Zea mays) [8]): 60%
pest or weed control at 15.625 g/ha [9]: 70%
pest or weed control at 62.5 g/ha [9]: 80%
pest or weed control at 250 g/ha [9]: 80%
pest or weed control at 15.625 g/ha [10]: 0%
pest or weed control at 62.5 g/ha [10]: 20%
pest or weed control at 250 g/ha [10]: 60%
pest or weed control at 15.625 g/ha [11]: 0%
pest or weed control at 62.5 g/ha [11]: 60%
pest or weed control at 250 g/ha [11]: 70%
pest or weed control at 15.625 g/ha [12]: 20%
pest or weed control at 62.5 g/ha [12]: 20%
pest or weed control at 250 g/ha [12]: 30%

CON1C[C@H](c2ccc(F)c(F)c2)[C@@H](C(=O)Nc2ccc(F)c(F)c2F)C1=O [Compound 1679]
pest or weed control at 15.625 g/ha [1]: 10%
pest or weed control at 62.5 g/ha [1]: 10%
pest or weed control at 250 g/ha [1]: 60%
plant injury at 15.625 g/ha (corn (Zea mays) [2]): 0%
plant injury at 62.5 g/ha (corn (Zea mays) [2]): 0%
plant injury at 250 g/ha (corn (Zea mays) [2]): 60%
pest or weed control at 15.625 g/ha [3]: 90%
pest or weed control at 62.5 g/ha [3]: 90%
pest or weed control at 250 g/ha [3]: 90%
pest or weed control at 15.625 g/ha [4]: 10%
pest or weed control at 62.5 g/ha [4]: 10%
pest or weed control at 250 g/ha [4]: 30%
pest or weed control at 15.625 g/ha [5]: 50%
pest or weed control at 62.5 g/ha [5]: 80%
pest or weed control at 250 g/ha [5]: 90%
pest or weed control at 15.625 g/ha [6]: 0%
pest or weed control at 250 g/ha [6]: 10%
pest or weed control at 15.625 g/ha [7]: 0%
pest or weed control at 62.5 g/ha [7]: 20%
pest or weed control at 250 g/ha [7]: 40%
plant injury at 15.625 g/ha (corn (Zea mays) [8]): 0%
plant injury at 62.5 g/ha (corn (Zea mays) [8]): 0%
plant injury at 250 g/ha (corn (Zea mays) [8]): 60%
pest or weed control at 15.625 g/ha [9]: 80%
pest or weed control at 62.5 g/ha [9]: 80%
pest or weed control at 250 g/ha [9]: 80%
pest or weed control at 15.625 g/ha [10]: 0%
pest or weed control at 62.5 g/ha [10]: 30%
pest or weed control at 250 g/ha [10]: 50%
pest or weed control at 15.625 g/ha [11]: 40%
pest or weed control at 62.5 g/ha [11]: 80%
pest or weed control at 250 g/ha [11]: 90%
pest or weed control at 15.625 g/ha [12]: 0%
pest or weed control at 62.5 g/ha [12]: 50%
pest or weed control at 250 g/ha [12]: 40%
